Data taken from patent publication US8623919B2, “Method of synthesizing S-allyl-cysteine analogues and their therapeutic application in treating myocardial infarction” (Fudan University, priority 2007, dated 2014).

Key:
H9c2 cells [1] = assay: H9c2 cell viability by MTT method after H2O2 injury; assay type: cell-based; conditions: PAG group, PAG 10^−4 mol/L
Experimental: (§1) H9c2 cells were cultured in DMEM with 10% of fetal bovine serum, 37 degree C. and 5% CO2 incubator. The monolayer culture was split at a 1:4 ratio or harvested to perform experiments when confluence was 70-80%. Adjust the density of the cells to […] and inoculate the cells on a 96 well plate.
Control group, no SAC analogues treatment, no H2O2 injured process.
(§2) H2O2 injury (Model) group, no SAC analogues treatment, under H2O2 200 μmol/L for 2 hours.
(§3) PAG group, PAG 10^−4/mol/L
(§4) SPRC dosage groups: SPRC 1E-7, SPRC 1E-6, SPRC 1E-5, the cell groups were treated with SPRC dosages of 10^−7 mol/L, 10^−6 mol/L, 10^−5 mol/L respectively.
(§5) SPRC dosage+PAG groups: the cell group was treated with SPRC dosages of 10^−5 mol/L and PAG 10^−4 mol/L.
H9c2 cell viability was assessed by MTT method. […] PAG is able to block the effect of SPRC.

H9c2 cells [2] = assay: LDH leakage of H9c2 cells injured by H2O2; assay type: cell-based; conditions: PAG group, PAG 10^−4 mol/L
Experimental: as §1, §2, §3, §4, §5
The cell samples (10^6 cells/sample) from each group were lysed under sterilized condition, and LDH contents in each samples were tested by pyruvic acid production method.

H9c2 cells [3] = assay: Mn-SOD activity of H9c2 cells injured by H2O2; assay type: cell-based; conditions: PAG group, PAG 10^−4 mol/L
Experimental: (§6) H9c2 cells were cultured same as Example 12, the cells were then divided into the groups same as Example 12.
(§7) The cells were lysed under sterilized condition, and lipid peroxidation experiments on the samples were performed. […] The effect of SPRC could be blocked by PAG, indicating SPRC mediates its effect on H9c2 cell by way of endogenous H2S.

H9c2 cells [4] = assay: MDA content of H9c2 cells injured by H2O2; assay type: cell-based; conditions: PAG group, PAG 10^−4 mol/L
Experimental: as §6, §7

rats following MI injury [5] = assay: Infarct size after TTC staining in rats following MI injury; assay type: in vivo, SD rats; conditions: 50 mg/Kg/day intraperitoneal, 7 days before and 2 days after ligation, 48 h after surgery, saline 36.0±1.3%
Experimental: (§8) SPRC and SAC were dissolved in saline (vehicle). Male SD rats (weight 200-250 g) were randomly assigned to […] treatment groups: group (1) Sham group: Sham-treated with saline (n=4), (2) Sham+SPRC group: Sham-treated with SPRC (50 mg/Kg/day) (n=4), (3) Sham+SAC group: Sham-treated with SAC (50 mg/Kg/day) (n=4), (4) MI group: MI treated with saline (n=8), (5) MI+SPRC group: MI treated with SPRC (50 mg/Kg/day) (n=8), (6) MI+SAC group: MI treated with SAC (50 mg/Kg/day) (n=8). Rats were pre-treated for seven days with each SAC analogues respectively via an intraperitoneal injection once daily before they were used for MI model studies. […] Briefly, the rats were anesthetized with 7% choral hydrate (60 mg/kg intraperitoneal injection), endotracheally intubated and mechanically ventilated with room air, respiratory rate 100 breaths/min, tidal volume 2.5 ml with a rodent ventilator (DHX-150, China). ECG was recorded in the anaesthetized animal for a period of one minute using the Animal Mflab200 amplifier (Produced in China). A left thoracotomy was performed and the third intercostal space was exposed. […] Then incisions were sutured and the chests were closed. […] Forty eight hours after the surgery, ECG was recorded for each rat in each group. […] To evaluate the effect of SPRC and SAC on MI, infarct size were measured after TTC staining (FIG. 12).

rats following MI injury [6] = assay: ECG in rats following MI injury; assay type: in vivo, SD rats; conditions: 50 mg/Kg/day, day 10, 48 hr after the induction of MI
Experimental: as §8

rats following MI injury [7] = assay: Serum LDH in rats (sham or MI); assay type: in vivo, SD rats; conditions: Sham rats; 50 mg/Kg/day intraperitoneal
Experimental: (§9) Animals were assigned and prepared the same as in Example 7, and dosages of SPRC and SAC were used the same in this example as in Example 7.
(§10) Serum CK levels were detected with diagnostic kit (NJBI, China) according to the instructions. LDH were determined calorimetrically with a spectrophotometer. Lipid peroxidation was measured in terms of MDA content using the thiobarbituric acid (TBA) assay. […] With regard to lipid peroxidation, the levels of MDA in MI groups increased at 48 h after myocardial infarction. […] (FIG. 14)

rats following MI injury [8] = assay: Serum CK in rats (sham or MI); assay type: in vivo, SD rats; conditions: Sham rats; 50 mg/Kg/day intraperitoneal
Experimental: as §9, §10

rats following MI injury [9] = assay: MDA content (TBA assay) in rats (sham or MI); assay type: in vivo, SD rats; conditions: Sham rats; 50 mg/Kg/day intraperitoneal
Experimental: as §9, §10

rats following MI injury [10] = assay: SOD activity in plasma of rats (sham or MI); assay type: in vivo, SD rats; conditions: 50 mg/Kg/day intraperitoneal
Experimental: as §9, §10

rats following MI injury [11] = assay: Plasma H2S levels in rats (sham or MI); assay type: in vivo, SD rats; conditions: 50 mg/Kg/day intraperitoneal
Experimental: as §9
(§11) The plasma levels of H2S in each treatment group were determined since CSE mediates the endogenous production of H2S in mammals. Plasma H2S concentrations in MI group rats at 48 h after MI induction were 34.7±5.6 μM (n=8). […] Left ventricular CSE activity was analyzed in the tissue homogenates from each treatment group (n=6). CSE activity was 1.58±0.15 μmol/g protein/hr in left the ventricular tissues in MI group and 2.19±0.32 μmol/g protein/hr in the MI+SAC treated rats.

CSE [12] = biological target: T1, CSE (Rattus norvegicus, UniProt P18757); assay: Left ventricular CSE activity in tissue homogenates of rats; assay type: in vivo, SD rats; conditions: 50 mg/Kg/day; for CSE activity: left ventricle
T1 construct: from tissue; host or cells: rat left ventricle (homogenate), myocardial infarction model
T1 sequence (P18757 whole entry): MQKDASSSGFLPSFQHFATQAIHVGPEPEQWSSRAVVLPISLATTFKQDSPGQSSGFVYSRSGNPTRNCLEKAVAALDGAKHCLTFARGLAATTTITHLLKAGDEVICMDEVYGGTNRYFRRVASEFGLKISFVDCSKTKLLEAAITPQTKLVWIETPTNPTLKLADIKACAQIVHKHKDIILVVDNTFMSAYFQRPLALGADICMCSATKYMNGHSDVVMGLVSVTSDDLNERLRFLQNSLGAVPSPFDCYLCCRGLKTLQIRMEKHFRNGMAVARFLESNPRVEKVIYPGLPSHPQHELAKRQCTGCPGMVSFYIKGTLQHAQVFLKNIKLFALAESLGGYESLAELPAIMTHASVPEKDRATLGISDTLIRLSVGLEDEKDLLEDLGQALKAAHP
Experimental: as §9, §11
SPRC administered rats had the highest CSE activity of 2.58±0.07 μmol/g protein/hr (p<0.01) (FIG. 15B). This observation correlated with the observed increases in H2S concentrations in the same treatment groups.

Bax = assay: Western blot of Bax protein in left ventricle; assay type: in vivo, SD rats; conditions: MI rats, 50 mg/Kg/day, p<0.01
From the text: as §9

Bcl-2 = assay: Western blot of Bcl-2 protein in left ventricle; assay type: in vivo, SD rats; conditions: MI rats, 50 mg/Kg/day, p<0.01
From the text: as §9

CSE [13] = assay: Western blot of CSE protein in left ventricle; assay type: in vivo, SD rats; conditions: MI rats, 50 mg/Kg/day, p<0.01
From the text: as §9

CSE mRNA = assay: RT-PCR of CSE mRNA in left ventricle; assay type: in vivo, SD rats; conditions: MI rats, 50 mg/Kg/day
From the text: as §9
(§12) To further verify the effects of SPRC and SAC, the expressions of Bcl-2, Bax and CSE mRNA were accessed by RT-PCR (FIG. 17). An isoform of the CSE gene was detected (GenBank; access no. AY641456). The relative amounts of CSE mRNA in Left ventricular subjected to MI were increase 3.3-fold and 1.5-fold following SPRC and SAC exposure as compared to the MI group.

Bax mRNA = assay: RT-PCR of Bax mRNA in left ventricle; assay type: in vivo, SD rats; conditions: MI rats, 50 mg/Kg/day, p<0.05
From the text: as §9, §12

Bcl-2 mRNA = assay: RT-PCR of Bcl-2 mRNA in left ventricle; assay type: in vivo, SD rats; conditions: MI rats, 50 mg/Kg/day, p>0.05
From the text: as §9, §12

myocardial cells [14] = assay: SOD activity (Hydroxylamine method) in hypoxia/reoxygenation injured myocardial cells; assay type: cell-based, Sprague-Dawley (SD) rat
Experimental: Myocardial cell samples were obtained from the same procedure of Example 1, the experiment groups were divided and hypoxia/reoxygenation experiments were performed on Control group, Vehicle group, SAC and analogue groups, same as the experiments in Example 1 with the same dosages and same conditions. Myocardial cells were obtained from each sample (10^6 myocardial cells/sample) from the Control group, Vehicle group, SAC and analogue groups. The cells were lysed under sterilized condition, and SOD (superoxide dismutase) activities in each sample of the cells were determined by Hydroxylamine method (a conventional method well known in the arts) using each microgram of protein per 1 milliliter reaction solution inhibits SOD activity to its 50% of original activity, in which the amount of SOD used in the reaction as standard of 1 unit of SOD activity.

myocardial cells [15] = assay: Lipid peroxidation (MDA, TBA) in hypoxia/reoxygenation injured myocardial cells; assay type: cell-based, Sprague-Dawley (SD) rat; conditions: 10^−5 mol/L
Experimental: Myocardial cell samples were obtained from the same procedure of Example 1, the experiment groups were divided and hypoxia/reoxygenation experiments were performed on Control group, Vehicle group, SAC and analogue groups, same as the experiments in Example 1 with the same dosages and same conditions. Myocardial cells were obtained from each sample (10^6 myocardial cells/sample) from the Control group, Vehicle group, SAC and analogue groups. The cells were lysed under sterilized condition, and lipid peroxidation experiments on the samples were performed. Since oxygen free radical attacks poly unsaturated fatty acid in biomembrane, inducing lipid peroxidation and producing MDA (malondialdehyde). MDA can react with thiobarbituric acid (TBA), forms red product, which can be detected in spectrophotometer at 532 nm. […] The inhibition effect could be reversed by PAG.

`C#CCC(N)C(=O)O` (racemic) [PAG, DL-propargylglycine, reference compound] was tested, and the “H9c2 Cell Survive” value (H9c2 cells [1]) was 58.9 ± 1.2%, the “LDH Leakage” value (H9c2 cells [2]) was 63.4 ± 1.2% and the “Mn-SOD Activity” value (H9c2 cells [3]) was 7.57 ± 0.83 U/mgprot. The “MDA Content” value (H9c2 cells [4]) was 2.71 ± 0.26 nmol/mgprot.
`C=CCSC[C@H](N)C(=O)O` [SAC, S-Allyl-Cysteine] was tested, and the “infarct size/total area of myocardium” value (rats following MI injury [5]) was 24.9±1.9%, the “ST-segment elevation in ECG” value (rats following MI injury [6]) was “less elevated ST-segment” and the LDH (rats following MI injury [7]) was 2599 ± 212 U/L. The CK (rats following MI injury [8]) was 0.250 ± 0.019 U/ml, the MDA (rats following MI injury [9]) was 3.57 ± 0.31 nmol/mL and the SOD (rats following MI injury [10]; MI rats, 48 h after MI) was 107.1 ± 5.4 U/ml. For the same compound, the SOD (rats following MI injury [10]; Sham rats) was 159.8 ± 4.8 U/ml, the “H2S concentration in plasma” value (rats following MI injury [11]; MI rats, 48 h after MI induction, 50 mg/kg/day) was 61.1 ± 3.6 µM and the “H2S concentration in plasma” value (rats following MI injury [11]; Sham rats) was 65.2 ± 4.4 µM. The CSE activity (CSE [12]; MI rats) was 2.19 ± 0.32 μM/mgprot, the “Left ventricular CSE activity” value (CSE [12]; MI rats, left ventricular tissue homogenates, MI group 1.58±0.15) was 2.19±0.32 μmol/g protein/hr and the CSE activity (CSE [12]; Sham rats) was 2.31 ± 0.24 μM/mgprot. The Bax protein levels (Bax) was “down-regulated”, the Bcl-2 protein expression (Bcl-2) was “up-regulated” and the CSE protein expression (CSE [13]) was “up-regulated”. The “relative amounts of CSE mRNA, increase as compared to the MI group” value (CSE mRNA) was 1.5 fold, the Bax gene expression (Bax mRNA) was “down regulated” and the Bcl-2 gene expression (Bcl-2 mRNA) was “no significant differences”.
In the case of `CCCCSC[C@H](N)C(=O)O` [SBC, S-butyl-L-cysteine], the “Cu—Zn SOD activity in cytoplasm” value (myocardial cells [14]; 10^−5 mol/L) is reported as “able to elevate” and the “effect of PAG on elevating Cu—Zn SOD activity” value (myocardial cells [14]; with PAG) is reported as “PAG also reversed the effect”.
`CCSC[C@H](N)C(=O)O` [SEC, S-ethyl-L-cysteine] was tested, and the “Mn-SOD activity in mitochondria” value (myocardial cells [14]; 10^−5 mol/L) was “able to elevate”, the “effect of PAG on elevating Mn-SOD activity” value (myocardial cells [14]; with PAG) was “PAG also reversed” and the “lipid peroxidation (MDA)” value (myocardial cells [15]) was “inhibited”.
In the case of `CCCSC[C@H](N)C(=O)O` [SPC, S-propyl-L-cysteine], the “Cu—Zn SOD activity in cytoplasm” value (myocardial cells [14]; 10^−5 mol/L) is reported as “able to elevate”, the “effect of PAG on elevating Cu—Zn SOD activity” value (myocardial cells [14]; with PAG) is reported as “PAG also reversed the effect” and the “lipid peroxidation (MDA)” value (myocardial cells [15]) is reported as “inhibited”.
`CCCCCSC[C@H](N)C(=O)O` [SPEC, S-pentyl-L-cysteine] was tested, and the “Cu—Zn SOD activity in cytoplasm” value (myocardial cells [14]; 10^−5 mol/L) was “able to elevate” and the “effect of PAG on elevating Cu—Zn SOD activity” value (myocardial cells [14]; with PAG) was “PAG also reversed the effect”.
